Test results reported in ChEMBL document CHEMBL1153816, “Novel N-substituted 4-hydrazino piperidine derivative as a dipeptidyl peptidase IV inhibitor” (Bioorg Med Chem Lett, 2009).
Active and inactive are the calls of the source. The rule behind the calls is not given here.

system: Rattus norvegicus; assay: Antidiabetic activity in n5-STZ rat diabetic model assessed as decrease in glucose AUC at 44 mg/kg, po administered as single dose by OGTT

SMILES	Activity
N#C[C@@H]1CSCN1C(=O)CN(N)C1CCN(CC(=O)Nc2ccc(Cl)cn2)CC1	Active

target: Dipeptidyl peptidase 4 (Sus scrofa, UniProt P22411); assay: Inhibition of pig kidney DPP4 by spectrophotometric method
Sequence (P22411 whole entry): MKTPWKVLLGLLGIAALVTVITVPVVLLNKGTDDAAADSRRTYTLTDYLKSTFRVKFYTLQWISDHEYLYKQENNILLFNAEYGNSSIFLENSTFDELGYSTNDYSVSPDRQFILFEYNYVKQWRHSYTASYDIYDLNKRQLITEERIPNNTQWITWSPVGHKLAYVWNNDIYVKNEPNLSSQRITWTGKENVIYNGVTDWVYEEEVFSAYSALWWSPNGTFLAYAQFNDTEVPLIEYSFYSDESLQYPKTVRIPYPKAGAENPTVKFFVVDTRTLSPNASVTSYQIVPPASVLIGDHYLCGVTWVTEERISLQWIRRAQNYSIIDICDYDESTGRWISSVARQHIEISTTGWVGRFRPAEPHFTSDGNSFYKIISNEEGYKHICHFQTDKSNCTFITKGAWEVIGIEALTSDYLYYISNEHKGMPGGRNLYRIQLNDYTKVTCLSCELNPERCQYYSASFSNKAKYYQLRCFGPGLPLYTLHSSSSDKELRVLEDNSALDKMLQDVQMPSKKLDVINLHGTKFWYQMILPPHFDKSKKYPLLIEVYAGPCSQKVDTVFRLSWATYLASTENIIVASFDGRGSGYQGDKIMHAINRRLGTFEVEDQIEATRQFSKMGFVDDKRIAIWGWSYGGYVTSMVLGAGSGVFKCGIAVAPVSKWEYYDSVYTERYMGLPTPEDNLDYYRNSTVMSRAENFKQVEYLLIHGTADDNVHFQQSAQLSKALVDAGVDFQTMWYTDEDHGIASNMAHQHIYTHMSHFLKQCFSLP

SMILES	IC50
CCNN(CC(=O)N1CSC[C@H]1C#N)C1CCN(S(C)(=O)=O)CC1	3760 nM
N#C[C@@H]1CSCN1C(=O)CN(N)C1CCN(Cc2cccnc2)CC1	4770 nM
COC(=O)NN(CC(=O)N1CSC[C@H]1C#N)C1CCN(CC(=O)Nc2ccc(Cl)cn2)CC1	38400 nM
N#C[C@@H]1CSCN1C(=O)CN(N)C1CCN(CC(=O)Nc2ccc(C(F)(F)F)cc2)CC1	308 nM
CN(CCN)C(=O)N1CCC(N(N)CC(=O)N2CSC[C@H]2C#N)CC1	1230 nM
N#C[C@@H]1CSCN1C(=O)CN(N)C1CCN(CC(=O)Nc2ccc(S(N)(=O)=O)cc2)CC1 [listing 1 of 2 here]	90 nM
N#C[C@@H]1CSCN1C(=O)CN(N)C1CCN(Cc2ccccc2)CC1	1630 nM
N#C[C@@H]1CSCN1C(=O)CN(N)C1CCN(Cc2ccc([N+](=O)[O-])cc2)CC1	698 nM
CS(=O)(=O)N1CCC(N(N)CC(=O)N2CSC[C@H]2C#N)CC1	1460 nM
N#Cc1cc(CN2CCC(N(N)CC(=O)N3CSC[C@H]3C#N)CC2)ccc1-c1ccccc1	1020 nM
N#C[C@@H]1CCCN1C(=O)CN(N)C1CCN(CC(=O)Nc2ccc(Cl)cn2)CC1	3700 nM
N#C[C@@H]1CSCN1C(=O)CN(N)C1CCN(C(=O)N2CCOCC2)CC1	790 nM
N#C[C@@H]1CSCN1C(=O)CN(N)C1CCN(CC(=O)Nc2nc3ccccc3s2)CC1	134 nM
N#C[C@@H]1CSCN1C(=O)CN(N)C1CCN(S(=O)(=O)c2ccc(Cl)cc2)CC1	1450 nM
N#C[C@@H]1CSCN1C(=O)CN(N)C1CCNCC1	12100 nM
CC(C)(C)C(=O)N1CCC(N(N)CC(=O)N2CSC[C@H]2C#N)CC1	4150 nM
N#C[C@@H]1CSCN1C(=O)CN(N)C1CCN(Cc2ccc(F)cc2)CC1	2230 nM
Cc1ccc(S(=O)(=O)N2CCC(N(N)CC(=O)N3CSC[C@H]3C#N)CC2)cc1	2700 nM
CCNN(CC(=O)N1CSC[C@H]1C#N)C1CCN(CC(=O)Nc2ccc(Cl)cn2)CC1	490 nM
N#C[C@@H]1CSCN1C(=O)CN(N)C1CCN(C(=O)c2cccc(Cl)c2Cl)CC1	1790 nM
N#C[C@@H]1CSCN1C(=O)CN(N)C1CCN(CC(=O)Nc2ccc(S(N)(=O)=O)cc2)CC1 [listing 2 of 2 here]	98 nM
COc1ccc(S(=O)(=O)N2CCC(N(N)CC(=O)N3CSC[C@H]3C#N)CC2)cc1	6680 nM
CC1CCC(C(=O)N2CCC(N(N)CC(=O)N3CSC[C@H]3C#N)CC2)CC1 (some centres not stated)	866 nM
N#C[C@@H]1CSCN1C(=O)CN(N)C1CCN(COc2ccccc2)CC1	638 nM

Results, then the compound that gave them:

IC50	SMILES
1030 nM	COCCNC(=O)CN1CCC(N(N)CC(=O)N2CSC[C@H]2C#N)CC1
506 nM	N#C[C@@H]1CSCN1C(=O)CN(N)C1CCN(CC(=O)NC2CCCCC2)CC1
468 nM	CC(C)OCCCNC(=O)CN1CCC(N(N)CC(=O)N2CSC[C@H]2C#N)CC1
523 nM	N#C[C@@H]1CSCN1C(=O)CN(N)C1CCN(CC(=O)NC23CC4CC(CC(C4)C2)C3)CC1
830 nM	N#C[C@@H]1CSCN1C(=O)CN(N)C1CCN(C(=O)CN2CCOCC2)CC1
510 nM	N#C[C@@H]1CSCN1C(=O)CN(N)C1CCN(CC(=O)NCc2ccccc2F)CC1
226 nM	N#C[C@@H]1CSCN1C(=O)CN(N)C1CCN(CC(=O)Nc2ncc(Br)s2)CC1
236 nM	N#C[C@@H]1CSCN1C(=O)CN(N)C1CCN(CC(=O)NC2CC2)CC1 [listing 1 of 2 here]
359 nM	N#C[C@@H]1CSCN1C(=O)CN(N)C1CCN(CC(=O)Nc2ccc(F)c(Cl)c2)CC1
240 nM	N#C[C@@H]1CSCN1C(=O)CN(N)C1CCN(CC(=O)Nc2ccc3c(c2)OCO3)CC1
200 nM	N#Cc1ccc(NC(=O)CN2CCC(N(N)CC(=O)N3CSC[C@H]3C#N)CC2)cc1
185 nM	Cc1nc(NC(=O)CN2CCC(N(N)CC(=O)N3CSC[C@H]3C#N)CC2)sc1C
110 nM	N#Cc1ccc(NC(=O)CN2CCC(N(N)CC(=O)N3CSC[C@H]3C#N)CC2)nc1 [listing 1 of 2 here]
217 nM	N#C[C@@H]1CSCN1C(=O)CN(N)C1CCN(CC(=O)NC2CC2)CC1 [listing 2 of 2 here]
1530 nM	CC(=O)N1CCC(N(N)CC(=O)N2CSC[C@H]2C#N)CC1
143 nM	N#C[C@@H]1CSCN1C(=O)CN(N)C1CCN(CC(=O)Nc2ncccn2)CC1
130 nM	N#Cc1ccc(NC(=O)CN2CCC(N(N)CC(=O)N3CSC[C@H]3C#N)CC2)nc1 [listing 2 of 2 here]

system: Rattus norvegicus; assay: Antidiabetic activity in ZDF rat diabetic model assessed as decrease in glucose excursion at 44 mg/kg, po administered BID for 6 weeks by OGTT; format: functional, organism-based; design: dose 44 mg/kg

SMILES	Activity
N#C[C@@H]1CSCN1C(=O)CN(N)C1CCN(CC(=O)Nc2ccc(Cl)cn2)CC1	Active

system: Rattus norvegicus; assay: Antidiabetic activity in ZDF rat diabetic model assessed as increase in insulin release at 44 mg/kg, po administered BID for 6 weeks by sandwich ELISA; format: functional, organism-based; design: dose 44 mg/kg

SMILES	Activity
N#C[C@@H]1CSCN1C(=O)CN(N)C1CCN(CC(=O)Nc2ccc(Cl)cn2)CC1	Active

system: Rattus norvegicus; assay: Inhibition of DPP4 in n5-STZ rat at 22 mg/kg, po administered as single dose after 4 hrs relative to vehicle treated control

SMILES	inhibition in vivo at 22 mg/kg
N#C[C@@H]1CSCN1C(=O)CN(N)C1CCN(CC(=O)Nc2ccc(Cl)cn2)CC1	39.8%

system: Rattus norvegicus; assay: Antidiabetic activity in n5-STZ rat diabetic model assessed as decrease in glucose excursion at 44 mg/kg, po administered as single dose by OGTT

SMILES	Activity
N#C[C@@H]1CSCN1C(=O)CN(N)C1CCN(CC(=O)Nc2ccc(Cl)cn2)CC1	Active

system: Rattus norvegicus; assay: Antidiabetic activity in n5-STZ rat diabetic model assessed as stimulation of insulin response at 44 mg/kg, po administered as single dose by sandwich ELISA

SMILES	Activity
N#C[C@@H]1CSCN1C(=O)CN(N)C1CCN(CC(=O)Nc2ccc(Cl)cn2)CC1	Active
